Test results: article PMC7279487, “Dual Target Ligands with 4-tert-Butylphenoxy Scaffold as Histamine H3 Receptor Antagonists and Monoamine Oxidase B Inhibitors” (International Journal of Molecular Sciences, 2020)

Experiments:
human MAO A = target: T1, human MAO A (Homo sapiens, UniProt P21397); experiment: hMAO A inhibition, fluorometric Amplex Red MAO assay; format: biochemical; conditions: mean ± SEM; p-tyramine 200 μM
T1 construct: purchased Sigma Aldrich M7316
T1 sequence (P21397 1-527): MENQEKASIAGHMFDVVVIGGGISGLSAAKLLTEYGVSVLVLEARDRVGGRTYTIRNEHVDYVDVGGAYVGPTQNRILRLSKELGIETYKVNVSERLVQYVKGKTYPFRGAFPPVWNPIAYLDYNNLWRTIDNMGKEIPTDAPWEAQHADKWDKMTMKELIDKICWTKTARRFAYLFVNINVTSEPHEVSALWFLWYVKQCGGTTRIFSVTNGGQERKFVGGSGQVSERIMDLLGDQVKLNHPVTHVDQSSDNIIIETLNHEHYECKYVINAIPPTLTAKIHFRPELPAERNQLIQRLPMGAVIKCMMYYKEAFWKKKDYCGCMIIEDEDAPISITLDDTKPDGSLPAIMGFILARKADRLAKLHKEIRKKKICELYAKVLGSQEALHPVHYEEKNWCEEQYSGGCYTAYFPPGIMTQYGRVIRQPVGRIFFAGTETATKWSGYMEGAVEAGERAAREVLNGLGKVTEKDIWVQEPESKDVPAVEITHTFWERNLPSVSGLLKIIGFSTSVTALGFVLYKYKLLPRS
Procedure: Inhibitory potency of compounds on MAO isoenzymes were carried out by a fluorometric method with a commercial Amplex™ Red Monoamine Oxidase Assay Kit (ThermoFisher Scientific A12214, Waltham, MA, USA) as described previously. For all tests, recombinant human MAO B and MAO A (from Sigma AldrichM7441 and M7316, Darmstadt, Germany) were used. Inhibitors’ activity was measured in the presence of p-tyramine (200 μM).
[…] […] All calculations were made in Microsoft Excel and GraphPadPrism software. All experiments were performed in duplicate, and data are expressed as mean ± SEM of 2–5 independent experiments.

[1] = test system: haloperidol-induced catalepsy; experiment: haloperidol-induced catalepsy, bar test; format: in vivo, Wistar rats; conditions: for Times of Observation of Catalepsy (s), 0 min / Times of Observation of Catalepsy (s), 3 min / Times of Observation of Catalepsy (s), 6 min: mean ± SEM (n = 6)
Procedure: (§1) Haloperidol (dopamine D2 antagonist)-induced catalepsy in rodents is a popular model for screening of antiparkinsonian activity of compounds [21]. Caused symptoms in animals are similar to the inability of PD patients to initiate movements. […] The reversal of catalepsy was tested for 6 min (3 times in 3 min intervals) after 1 h of haloperidol administration. As the reference compound was used MSX-3, the adenosine A2A receptor antagonist with confirmed ability to reverse catalepsy mediated by D1 and D2 receptor antagonists.
Haloperidol-induced catalepsy was not reduced by DL-76 administrated at a dose of 25 mg/kg body weight (Table 3). After administration of DL-76 at a dose of 50 mg/kg body weight, low antiparkinsonian activity in the bar test was observed. […] This effect was weaker than the anti-Parkisonian activity of MSX-3.
(§2) The experiments were carried out on male rats Wistar (180–220 g). Animals were housed in plastic cages in room at a constant temperature of 20 ± 2 °C with natural light–dark cycles. The animals had free access to standard pellet diet and water and were used after a minimum of 3 days of acclimatization to the housing conditions. Control and experimental groups consisted of 6 animals each. All experimental procedures were performed according to the European Union Directive of 22 September 2010 (2010/63/EU) and Polish legislation concerning animal care and use and was approved by the Local Ethics Committee for Experiments on Animals in Kraków, Poland (Resolution No. 70/2014, approval date: 20 May 2014). The examined compound was administered as the suspension in 0.5% methylcellulose in constant volume of 10 mL/kg.
(§3) Antiparkinsonian activity in catalepsy tests was performed as described in [28]. Haloperidol was administered s.c. at a dose of 0.63 mg/kg, which in 100% of control animals caused catalepsy. Tested compounds were administered i.p. at the doses 50 and 25 mg/kg body weight, 5 min after haloperidol injection. After 60 min from the injection of haloperidol, to assess the occurrence of catalepsy, the animals were placed in a forced position and the time they remained in this position was measured. Two tests were performed to determine the antiparkinsonian activity: crossed leg position test and bar test. In the first test, the animals were put on the hind paws behind the front (forced position); in the second, the animals were supported on a wooden block (the front paws were placed on a block suspended 10 cm above the ground). Then, the time that the animals remain is measured in a forced position (time was measured to a maximum of 60 s). Observation was carried out 3 times in 3-min intervals. The shortening of the time of catalepsy to the control group was adopted for the antiparkinsonian activity.

[2] = test system: haloperidol-induced catalepsy; experiment: haloperidol-induced catalepsy, crossed-leg position test; format: in vivo, Wistar rats; conditions: for Times of Observation of Catalepsy (s), 0 min / Times of Observation of Catalepsy (s), 3 min / Times of Observation of Catalepsy (s), 6 min: mean ± SEM (n = 6)
Procedure: as §1, §2, §3

Structure (SMILES): CC(C)(C)c1ccc(OCCCN2CCCCC2)cc1 [DL76, 1-(3-(4-tert-butylphenoxy)propyl)piperidine]
- IC50 (human MAO A): > 10 µM
- reduction of haloperidol-induced catalepsy ([1]; 25 mg/kg body weight): not reduced
- Times of Observation of Catalepsy (s), 0 min ([1]; 25 mg/kg i.p.): 19.5 ± 4.2 s
- Times of Observation of Catalepsy (s), 3 min ([1]; 25 mg/kg i.p.): 26.5 ± 3.5 s
- Times of Observation of Catalepsy (s), 6 min ([1]; 25 mg/kg i.p.): 30.0 ± 0 s
- duration of catalepsy (versus control 25.8) ([1]; 50 mg/kg body weight): 16.4
- reduction of the duration of catalepsy compared to the control group ([1]; 50 mg/kg body weight): 36.4%
- Times of Observation of Catalepsy (s), 0 min ([1]; 50 mg/kg i.p.): 13.8 ± 5.9 s
- Times of Observation of Catalepsy (s), 3 min ([1]; 50 mg/kg i.p.): 13.5 ± 4.2 s
- Times of Observation of Catalepsy (s), 6 min ([1]; 50 mg/kg i.p.): 22.0 ± 5.0 s
- duration of catalepsy (versus control 19.25) ([2]; 25 mg/kg body weight): 8.75
- reduction of the duration of catalepsy compared to the control group ([2]; 25 mg/kg body weight, not statistically significant): 54.5%
- Times of Observation of Catalepsy (s), 0 min ([2]; 25 mg/kg): 0.66 ± 0.68 s
- Times of Observation of Catalepsy (s), 3 min ([2]; 25 mg/kg): 10.6 ± 6.1 s
- Times of Observation of Catalepsy (s), 6 min ([2]; 25 mg/kg): 15.0 ± 6.7 s
- duration of catalepsy (versus control 19.25) ([2]; 50 mg/kg body weight): 0.053
- reduction of the duration of catalepsy compared to the control group ([2]; 50 mg/kg body weight, statistically significant): 99.7%
- Times of Observation of Catalepsy (s), 0 min ([2]; 50 mg/kg): 0 ± 0 s
- Times of Observation of Catalepsy (s), 3 min ([2]; 50 mg/kg): 0 ± 0 s
- Times of Observation of Catalepsy (s), 6 min ([2]; 50 mg/kg): 0.16 ± 0.4 s
